“Also recorded” adds a separate entry of the source. Where two headings read alike, the source gives them in different places.
Key:
[1] = system: Abeta oligomer-induced membrane trafficking deficits in primary hippocampal neurons; test: Membrane trafficking/exocytosis (MTT) assay; assay type: cell-based, rat; conditions: for EC50: Rattus norvegicus, Hippocampal neuron; for Effect on membrane trafficking when dosed alone (words): absence of Abeta oligomers; for Effect against human Alzheimer's patient-derived Abeta oligomers (words): oligomers isolated from AD patient brains
sigma-2 receptor = molecular target: T1, sigma-2 receptor (Rattus norvegicus, UniProt Q5U3Y7); test: Competitive Radioligand Binding Assay 2, sigma-2, rat liver membrane homogenates; parameters: conducted using rat liver membrane homogenates; from tissue; host or cells: rat liver membrane homogenates; conditions: read-out: Ki at sigma-2 receptors
T1 sequence (Q5U3Y7 1-176): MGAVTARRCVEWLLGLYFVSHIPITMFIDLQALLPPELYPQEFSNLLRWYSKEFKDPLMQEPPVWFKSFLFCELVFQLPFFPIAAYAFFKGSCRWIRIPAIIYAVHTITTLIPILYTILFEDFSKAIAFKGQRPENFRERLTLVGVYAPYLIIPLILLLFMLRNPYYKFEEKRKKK
Experimental: Test compounds were dissolved in N,N-Dimethylformamide (DMF), dimethyl sulfoxide (DMSO) or ethanol and then diluted in 50 mM Tris-HCl pH 7.4 buffer containing 150 mM NaCl and 100 mM EDTA. Membrane homogenates were made from guinea pig brain for sigma-1 binding assay and rat liver for sigma-2 binding assay. Membrane homogenates were diluted with 50 mM Tris-HCl buffer, pH 8.0 and incubated at 25° C. in a total volume of 150 uL in 96 well plates with the radioligand and test compounds with concentrations ranging from 0.1 nM to 10 uM. After incubation was completed, the reactions were terminated by the addition of 150 uL of ice-cold wash buffer (10 mM Tris HCl, 150 mM NaCl, pH 7.4) using a 96 channel transfer pipette (Fisher Scientific, Pittsburgh, Pa.) and the samples harvested and filtered rapidly through 96 well fiber glass filter plate (Millipore, Billerica, Mass.) that had been presoaked with 100 uL of 50 mM Tris-HCl buffer. Each filter was washed four times with 200 uL of ice-cold wash buffer (10 mM Tris-HCl, 150 mM NaCl, pH 7.4).
The binding affinity, Ki values was calculated using the method of Cheng and Prusoff.

[2] = system: Abeta oligomer-induced synapse loss in primary hippocampal neurons; test: Synapse loss assay; assay type: cell-based, rat
Experimental: In this assay, Abeta oligomers were brought in contact with mature primary neurons in culture and their binding was determined by immunohistochemistry (anti-Abeta antibody) and quantified by image processing. The amount of Abeta in neuronal dendrites is assessed by counting the number of labeled puncta on the neuritis. […] This labeling is associated with synapses, co-localizing with the post-synaptic scaffold protein PSD-95 (Lacor et al., '04). […] The number of synapses can also be quantified in this assay by immunofluorochemistry. Similar procedures for binding assays can be found in the literature. […] Review.
Primary hippocampal neuronal culture was established as in the membrane trafficking assay above. […] Pretreatment with compounds to be tested lasted for 1 hr and addition of Abeta oligomers or no oligomer (vehicle alone) in a final concentration of 70 ul was followed by incubation for an additional 23 hrs.
The plates were then washed 3× with PBS for 5 min each. The plates were blocked at RT for 1 hr in 5% goat serum and 0.5% Triton X-100 in PBS. […] Primary antibodies were incubated overnight at 4° C. The plates were then washed 3× with PBS for 5 min each. […] Secondary antibodies were incubated at RT for 1 hr. The plates were washed once with PBS. DAPI (4′,6-diamidino-2-phenylindole, Invitrogen) was then applied at 0.03 ug/ul and incubated at RT for 5 min, then washed with PBS.

[3] = system: SKOV-3 human ovarian cancer cell line; test: MTS tumor cell viability assay; assay type: cell-based
D3(h) (agonist effect) = D3(h) (agonist effect) (Homo sapiens, UniProt P35462); test: Receptor panel, block of downstream signaling; assay type: cell-based
Experimental: (§1) It was also tested for its ability to block downstream signaling induced by agonists or antagonists of a given human receptor.

[4] = molecular target: alpha 1A (h) (antagonist effect) (Homo sapiens, UniProt P35348); test: Receptor panel, block of downstream signaling; assay type: cell-based; conditions: read-out: % Inhibition of Control
Experimental: as §1

neuronal cultures = test: Neuronal nuclear intensity / morphology; conditions: 24 hours
Sigma-1 receptors = Sigma-1 receptors (Homo sapiens, UniProt Q99720); test: Sigma-1 competitive radioligand binding, [3H](+)pentazocine, Jurkat cell membranes
Experimental: Reactions were terminated by rapid filtration through Whatman GF/C filters using a Brandel 12R cell harvester followed by two washes with ice-cold buffer. Radioactivity on the dried filter discs was measured using a liquid scintillation analyzer (Tri-Carb 2900TR; PerkinElmer Life and Analytical Sciences). The displacement curves were plotted and the Ki values of the test ligands for the receptor subtypes were determined using GraphPad Prism (GraphPad Software Inc., San Diego, Calif.). The percentage specific binding was determined by dividing the difference between total bound (disintegrations per minute) and nonspecific bound (disintegrations per minute) by the total bound (disintegrations per minute).

[5] = system: Na+ channel (site 2) (antagonist radioligand); test: Receptor panel, inhibition of binding

Sequence of Sigma-1 receptors (Q99720 whole entry): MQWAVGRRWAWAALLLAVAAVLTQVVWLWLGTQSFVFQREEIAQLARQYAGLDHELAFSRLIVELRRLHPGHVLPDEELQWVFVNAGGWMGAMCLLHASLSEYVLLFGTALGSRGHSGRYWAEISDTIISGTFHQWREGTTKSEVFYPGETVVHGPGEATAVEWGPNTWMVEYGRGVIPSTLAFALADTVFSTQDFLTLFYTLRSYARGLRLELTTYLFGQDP
Sequence of D3(h) (agonist effect) (P35462 whole entry): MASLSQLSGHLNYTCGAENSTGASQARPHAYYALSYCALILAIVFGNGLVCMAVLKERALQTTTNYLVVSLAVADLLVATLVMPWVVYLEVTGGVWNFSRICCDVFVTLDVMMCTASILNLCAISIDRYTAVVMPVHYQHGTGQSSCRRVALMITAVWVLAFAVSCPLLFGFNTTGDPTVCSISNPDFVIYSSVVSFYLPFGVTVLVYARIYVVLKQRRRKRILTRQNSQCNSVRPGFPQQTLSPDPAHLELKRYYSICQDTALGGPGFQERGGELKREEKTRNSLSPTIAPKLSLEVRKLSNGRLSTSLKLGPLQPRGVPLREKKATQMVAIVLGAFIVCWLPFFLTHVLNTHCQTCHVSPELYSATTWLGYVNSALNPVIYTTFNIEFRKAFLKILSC
Sequence of alpha 1A (h) (antagonist effect) (P35348 whole entry): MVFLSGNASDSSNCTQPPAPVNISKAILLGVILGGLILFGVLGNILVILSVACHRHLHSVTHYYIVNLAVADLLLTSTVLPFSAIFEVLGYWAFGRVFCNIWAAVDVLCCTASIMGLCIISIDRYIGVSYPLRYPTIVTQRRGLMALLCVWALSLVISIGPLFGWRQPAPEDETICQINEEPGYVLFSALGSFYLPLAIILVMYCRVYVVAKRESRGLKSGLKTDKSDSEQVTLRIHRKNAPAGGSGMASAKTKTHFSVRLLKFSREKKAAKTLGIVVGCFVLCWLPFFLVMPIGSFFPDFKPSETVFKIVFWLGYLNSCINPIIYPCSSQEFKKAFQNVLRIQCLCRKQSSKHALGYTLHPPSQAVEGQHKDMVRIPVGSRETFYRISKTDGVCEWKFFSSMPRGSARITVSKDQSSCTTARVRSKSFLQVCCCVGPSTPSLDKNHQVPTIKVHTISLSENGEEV

SMILES: COc1cc(CCC(C)NCc2ccc(C(F)(F)F)cc2)ccc1O (stereo not shown) [Compound II]
- Effect on Abeta oligomer trafficking deficits over the concentrations tested [1]: blocks oligomer-induced trafficking deficits at all concentrations tested
- Max Inhibition of Abeta (%) [1]: 68%
- Ki ([1]; Km for Abeta = 0.4 uM, assay concentr. 3 μM total Abeta, read-out: Calculated Ki): 260 nM
- EC50 ([1]; Table 11A, read-out: Block Aβ-induced membrane trafficking deficits EC50): 2200 nM
- EC50 ([1]; Table 11B, read-out: Inhibition Abeta oligomer-induced Membrane Trafficking EC50): 2200 nM
- EC50 ([1]; Table 12, read-out: EC50): 2200 nM
- EC50 ([1]; added after oligomers (treatment mode), read-out: EC50 blocking oligomer effects): 4100 nM
- EC50 ([1]; added before oligomers (prevention mode), read-out: EC50 blocking oligomer effects): 2200 nM
- Functional Neuronal Phenotype ([1]; Table 11B): Antagonist
- Effect on membrane trafficking when dosed alone (words) [1]: no significant effect on membrane trafficking
- Effect on membrane trafficking when dosed alone (words) ([1]; listed as compound II): does not affect membrane trafficking
- Cpd alone at Ki ([1]; compound without Abeta oligomers): +1%
- Max Inhib. of Abeta (Conc) ([1]; concentration in brackets): 85% (10)
- Effect against human Alzheimer's patient-derived Abeta oligomers (words) [1]: completely eliminated
- Effect against human Alzheimer's patient-derived Abeta oligomers (words) ([1]; listed as compound II): rightward shift; also recorded: blocks the membrane trafficking deficits
- Schild slope ([1]; synthetic Abeta oligomers): −0.75
- Assay effects in the absence of Aβ ([1]; trafficking or synapse number without Abeta oligomer): No
- Ki (sigma-2 receptor): 59.7 nM
- Effect on Abeta oligomer-induced synapse loss [2]: completely eliminated this synaptic regression
- Abeta oligomer-induced synapse loss eliminated ([2]; 5 μM): 100%
- Block synapse loss ([2]; Table 11B): 100%
- Abeta oligomer-induced synapse loss eliminated / recovery ([2]; b801): 100%
- IC50 ([3]; Homo sapiens, SK-OV-3, tumor cell viability, 48 hrs): 150000 ± 12000 nM
- Action ([3]; by EC50 relative to siramesine): Antagonist
- Other Targets: D3 (D3(h) (agonist effect); Table 11E): D3 (4 uM), Mu
- inhibition at 10 µM (D3(h) (agonist effect); read-out: % Inhibition of Control): 66%
- inhibition at 10 µM [4]: 56%
- Nuclear morphology / nuclear intensity in neurons (neuronal cultures): did not decrease nuclear intensity
- Ki (Sigma-1 receptors; Ki at sigma-1 receptors, displacement of [3H]-(+)-pentazocine, human Jurkat cell membranes): 500 nM
- Ki (Sigma-1 receptors; S1 binding Ki (nM), Table 11B): 500 nM
- Ki (Sigma-1 receptors; Sigma 1 Binding Ki (nM), Table 2, own compounds): 500 nM
- Ki (Sigma-1 receptors; Sigma Affinity (S1) nM, Table 11E, own compounds): 500 nM
- % Inhibition of Control ([5]; Compound II 10 uM): 54%
- Other Targets: Na + ch2 ([5]; Table 11E): Na + ch2 (2 uM)

— patent US20140378460A1, “COMPOSITIONS AND METHODS FOR TREATING NEURODEGENERATIVE DISEASE” (COGNITION THERAPEUTICS, INC., priority 2011, published 2014)
